Experimental data taken from US20250074911A1, “MACROCYCLIC BTK INHIBITORS” (Crossfire Oncology Holding B.V., priority 2021, published 2025).
pIC50, pKd: −log10 of the molar value. “And” between values parts separate entries of the source, which are not always exact repeats. Equal values may be shown once.

What was measured:
[1] = test system: REC-1 T474I cell lines; assay: Cell proliferation assay REC-1 BTK T474I knock-in cells (ATPlite, 72 hours); type: cell-based; conditions: Homo sapiens, Rec1; 72 hours; read-out: IC50 REC-1 T474I
How it was run: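 REC-1 cells carrying CRISPR knock-in mutant BTK, single-cell cloned and sequence-confirmed, were exposed to compound for 72 h and read by ATPlite luminescence. Percentage growth was calculated against the signal at the start of incubation and against untreated 0.3% DMSO wells as maximum growth.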

[2] = molecular target: full-length BTK C481S enzyme (Homo sapiens (Human), UniProt Q06187, C481S); assay: Biochemical kinase assay BTK C481S (IMAP)
How it was run: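 Full-length BTK C481S (1.2 nM) was pre-incubated with compound for 1 h at room temperature in the dark, then reacted with fluorescein-labelled MBP-derived peptide (50 nM) and ATP (7 μM) for 2 h. Reactions were quenched with IMAP binding solution, and IC50 values were derived from fluorescence polarization.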

[3] = molecular target: BTK T474I (Homo sapiens (Human), UniProt Q06187, T474I); assay: Binding kinetics measurements (Surface Plasmon Resonance) on BTK T474I; conditions: for pKd: binding affinity by Surface Plasmon Resonance (SPR); for Tau (h) BTK T474I (Act): target residence time, SPR
Method: (§1) Binding kinetics measurements on wt-BTK, BTK […], BTK […], BTK […] and BTK […] (Surface Plasmon Resonance) Streptavidin-coated chips (Cat. No. BR100531), disposables and maintenance kits for Biacore were purchased from Cytiva (Eindhoven, The Netherlands). […] Remaining streptavidin was blocked with biocytin. Immobilization was performed at 4° C. Subsequent assay steps were conducted at 22° C. After changing buffer to Biacore buffer with 1% (v/v) dimethylsulfoxide (DMSO), a pre-run was performed for a period of at least 30 min at a flow rate of 30 μl/min to obtain a stable surface. The kinetic constants of the compounds were determined with single cycle kinetics with five consecutive injections with an increasing compound concentration with ranges of 3.16-316 nM. […] To circumvent problems of mass transport limitation, a flow rate of 30 μl/min was used. A blank run with the same conditions was performed before the compound was injected. The SPR sensorgrams were analyzed with Biacore Evaluation Software by using a method of double referencing. First the reference channel was subtracted from the channel containing immobilized protein. Subsequently, the reference curve obtained with buffer injections was subtracted. […] Compounds that bound according to an induced fit model were fitted with a two-state reaction model. The kinetic constants (ka, […], KD) of duplicates were geometrically averaged. […] Target residence for an induced fit model was calculated as described (Tummino and Copeland, 2008).

[4] = molecular target: full-length wt-BTK enzyme (Homo sapiens (Human), UniProt Q06187); assay: Biochemical kinase assay wt-BTK (IMAP)
How it was run: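 IMAP fluorescence polarization assay: 1.2 nM enzyme pre-incubated 1 h with compound at room temperature, then 50 nM fluorescein-labeled MBP-derived peptide and 4 μM ATP added. Reaction ran 2 h at room temperature in the dark before quenching with IMAP binding solution.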

[5] = molecular target: BTK C481S (Homo sapiens (Human), UniProt Q06187, C481S); assay: Binding kinetics measurements (Surface Plasmon Resonance) on BTK C481S; conditions: for pKd: binding affinity by Surface Plasmon Resonance (SPR); for Tau (h) BTK C418S (Act): target residence time for BTK C481S, SPR
Method: as §1

[6] = test system: wt-TMD8 diffuse large B-cell lymphoma cells; assay: Cell proliferation assay wt-TMD8 (ATPlite, 120 hours); type: cell-based; conditions: B-cell; wt-TMD8 cells, 120 hours, ATPlite; read-out: IC50 wt-TMD8
How it was run: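 wt-TMD8 DLBCL cells, 1600 per well in RPMI-1640 with 10% FBS, rested ≥5 h then exposed to compound for 120 h at 37° C, 5% CO2. Viability read by ATPlite luminescence; percentage growth calculated relative to start-of-incubation signal and untreated 0.3% DMSO maximum growth.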

[7] = test system: wt-REC-1 mantle cell lymphoma cells; assay: Cell proliferation assay wt-REC-1 (ATPlite, 72 hours); type: cell-based; conditions: 72 h; read-out: IC50 wt-REC-1
How it was run: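 Luminescent viability read over 72 h, start-of-incubation signal recorded separately to separate growth from cell death. Percentage growth referenced to compound-free 0.3% DMSO wells; IC50 from 4-parameter logistic fit.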

[8] = molecular target: wt-BTK (Homo sapiens (Human), UniProt Q06187); assay: Binding kinetics measurements (Surface Plasmon Resonance) on wt-BTK; conditions: for pKd: binding affinity by Surface Plasmon Resonance (SPR); for Tau (h) wt-BTK (Act): target residence time, SPR
Method: as §1

[9] = molecular target: BTK T316A (Homo sapiens (Human), UniProt Q06187, T316A); assay: Binding kinetics measurements (Surface Plasmon Resonance) on BTK T316A; conditions: for pKd: binding affinity by Surface Plasmon Resonance (SPR); for Tau (h) BTK T316A (Act): target residence time, SPR
Method: as §1

[10] = molecular target: BTK T474S (Homo sapiens (Human), UniProt Q06187, T474S); assay: Binding kinetics measurements (Surface Plasmon Resonance) on BTK T474S; conditions: for residence time: SPR binding kinetics, BTK T474S, read-out: Tau (h) BTK T474S (Act), target residence time (converted); for pKd: binding affinity by Surface Plasmon Resonance (SPR)
Method: as §1

BTK T474S, sequence (Q06187 whole entry T474S): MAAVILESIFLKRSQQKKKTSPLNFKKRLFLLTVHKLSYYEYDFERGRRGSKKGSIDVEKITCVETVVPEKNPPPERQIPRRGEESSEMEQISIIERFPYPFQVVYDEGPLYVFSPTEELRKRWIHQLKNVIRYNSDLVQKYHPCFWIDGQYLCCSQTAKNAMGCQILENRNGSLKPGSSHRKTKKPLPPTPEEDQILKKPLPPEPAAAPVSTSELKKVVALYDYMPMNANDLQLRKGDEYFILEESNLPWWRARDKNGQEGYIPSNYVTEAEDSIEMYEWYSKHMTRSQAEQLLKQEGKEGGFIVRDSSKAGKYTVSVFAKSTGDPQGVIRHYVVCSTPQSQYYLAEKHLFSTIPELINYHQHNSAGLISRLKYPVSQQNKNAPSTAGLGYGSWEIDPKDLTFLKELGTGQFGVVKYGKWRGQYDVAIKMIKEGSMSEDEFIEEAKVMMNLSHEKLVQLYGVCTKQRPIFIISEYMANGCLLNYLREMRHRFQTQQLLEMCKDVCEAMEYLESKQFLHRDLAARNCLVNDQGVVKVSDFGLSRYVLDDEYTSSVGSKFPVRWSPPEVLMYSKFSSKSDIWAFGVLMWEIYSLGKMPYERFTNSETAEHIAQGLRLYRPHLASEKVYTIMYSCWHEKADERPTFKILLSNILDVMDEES
BTK T474I, sequence (Q06187 whole entry T474I): as the sequence (Q06187 whole entry T474S) above, with S474I counted along it
BTK T316A, sequence (Q06187 whole entry T316A): as the sequence (Q06187 whole entry T474S) above, with T316A, S474T counted along it
full-length wt-BTK enzyme, sequence (Q06187 whole entry): as the sequence (Q06187 whole entry T474S) above, with S474T counted along it
wt-BTK, sequence (Q06187 whole entry): as the sequence (Q06187 whole entry T474S) above, with S474T counted along it
full-length BTK C481S enzyme, sequence (Q06187 whole entry C481S): as the sequence (Q06187 whole entry T474S) above, with S474T, C481S counted along it
BTK C481S, sequence (Q06187 whole entry C481S): as the sequence (Q06187 whole entry T474S) above, with S474T, C481S counted along it

SMILES	pIC50 [1]	pIC50 [2]	pKd [3]	Tau (h) BTK T474I (Act) [3]	pIC50 [4]	pKd [5]	Tau (h) BTK C418S (Act) [5]	pIC50 [6]	pIC50 [7]	pKd [8]	Tau (h) wt-BTK (Act) [8]	pKd [9]	Tau (h) BTK T316A (Act) [9]	residence time [10]	pKd [10]
Nc1ncc2c3c1c(-c1ccc(C(=O)Nc4cc(C(F)(F)F)ccn4)cc1)nn3[C@@H]1CCC[C@H](C1)C(=O)NCCCC/C=C/2 [Example 1]	> 7.00	> 8.30	> 8.70	0.92 h	> 8.30	> 8.30	1.24 h	> 7.00	> 7.00	> 8.30	8.77 h	> 8.30	2.99 h	–	–
Nc1ncc2c3c1c(-c1ccc(C(=O)Nc4cc(C(F)(F)F)ccn4)cc1)nn3[C@@H]1CCC[C@H](C1)C(=O)NCCCCC/C=C/2 [Example 2]	> 7.00	> 8.30	> 8.70	3.61 h	> 8.30	–	–	> 7.00	> 7.00	> 8.30	4.47 h	> 8.30	16.05 h	–	–
Nc1ncc2c3c1c(-c1ccc(C(=O)Nc4cc(C(F)(F)F)ccn4)cc1)nn3[C@@H]1CCC[C@H](C1)NC(=O)CCCC[C@H](O)/C=C/2 [Example 11]	6.30 to 7.00	> 8.30	> 8.70	1.93 h	> 8.30	–	–	> 7.00	> 7.00	> 8.30	5.48 h	> 8.30	6.42 h	4.3 h	> 8.52
Nc1ncc2c3c1c(-c1ccc(C(=O)Nc4cc(C(F)(F)F)ccn4)cc1)nn3[C@@H]1CCC[C@H](C1)NC(=O)COCCC/C=C/2 [Example 18]	> 7.00	> 8.30	> 8.70	0.63 h	> 8.30	–	–	> 7.00	> 7.00	> 8.30	4.53 h	> 8.30	4.74 h	5.15 h	> 8.52
Nc1ncc2c3c1c(-c1ccc(C(=O)Nc4ccccn4)cc1)nn3[C@@H]1CCC[C@H](C1)NC(=O)CCCCC/C=C/2 [Example 24]	–	–	> 8.70	–	–	> 8.30	–	–	–	> 8.30	–	> 8.30	–	–	> 8.52
C[C@@H]1CC(=O)N[C@@H]2CCC[C@H](C2)n2nc(-c3ccc(C(=O)Nc4cc(C(F)(F)F)ccn4)cc3)c3c(N)ncc(c32)/C=C/CCN1C [Example 40]	> 7.00	> 8.30	> 8.70	0.85 h	> 8.30	–	–	> 7.00	> 7.00	> 8.30	6.49 h	> 8.30	2.16 h	8.38 h	> 8.52
Nc1ncc2c3c1c(-c1ccc(C(=O)Nc4cc(C(F)(F)F)ccn4)cc1)nn3[C@@H]1CCC[C@H](C1)C(=O)NCCCCC/C=C\C2 [Example 89b]	–	> 8.30	7.30 to 8.00 and > 8.30	0.64 h	> 8.30	> 8.30	6.69 h	–	> 7.00	–	–	> 8.30	3.12 h	–	–
Nc1ncc2n3c(nc(-c4ccc(C(=O)Nc5cc(C(F)(F)F)ccn5)cc4)c13)C1CCC[C@H](C1)NC(=O)CCC/C=C\C2 [Example 133b]	–	–	–	–	–	–	7.08 h	> 7.00	> 7.00	–	4.39 h	–	1.96 h	3.12 h	–
C[C@H]1CC(=O)N[C@@H]2CCC[C@H](C2)n2nc(-c3ccc(C(=O)Nc4cc(C(F)(F)F)ccn4)cc3)c3c(N)ncc(c32)/C=C/CCO1 [Example 156]	> 7.00	> 8.30	7.30 to 8.00 and > 8.30	–	> 8.30	–	–	> 7.00	> 7.00	–	–	–	1.05 h	1.06 h	> 8.52
N#Cc1ccnc(NC(=O)c2ccc(-c3nn4c5c(cnc(N)c35)/C=C/CCN3CC[C@H]3C(=O)N[C@@H]3CCC[C@@H]4C3)cc2)c1 [Example 165]	> 7.00	> 8.30	–	–	> 8.30	–	1.61 h	> 7.00	> 7.00	–	3.24 h	–	6.98 h	–	–
Nc1ncc2c3c1c(-c1ccc(C(=O)Nc4cc(C(F)(F)F)ccn4)cc1)nn3[C@@H]1CC[C@H](C1)NC(=O)[C@@H]1CCN1CC/C=C/2 [Example 174]	> 7.00	> 8.30	–	0.77 h	> 8.30	> 8.30	3.56 h	> 7.00	> 7.00	–	1.35 h	–	4.98 h	–	–
C[C@@H]1CC(=O)N[C@@H]2CC[C@H](C2)n2nc(-c3ccc(C(=O)Nc4cc(C(F)(F)F)ccn4)cc3)c3c(N)ncc(c32)/C=C/CCN1 [Example 175]	6.30 to 7.00	> 8.30	–	1.31 h	> 8.30	> 8.30	4.68 h	> 7.00	> 7.00	–	–	–	3.51 h	1.14 h	–
C[C@@H]1C[C@@H](C)n2nc(-c3ccc(C(=O)Nc4cc(C(F)(F)F)ccn4)cc3)c3c(N)ncc(c32)/C=C/COCCC(=O)N1 [Example 176]	> 7.00	> 8.30	–	1.94 h	> 8.30	–	–	> 7.00	> 7.00	–	3.13 h	–	5.38 h	1.95 h	–
C[C@@H]1CC(=O)N[C@@H]2CCC[C@H](C2)c2nc(-c3ccc(C(=O)Nc4cc(C(F)(F)F)ccn4)cc3)c3c(N)ncc(n23)/C=C/CCN1 [Example 179]	6.30 to 7.00	> 8.30	> 8.70	1.14 h	> 8.30	> 8.30	4.06 h	> 7.00	> 7.00	–	7.36 h	–	–	3.01 h	–
N#Cc1ccnc(NC(=O)c2ccc(-c3nn4c5c(cnc(N)c35)/C=C/COCCC(=O)N[C@@H]3CC[C@@H]4C3)cc2)c1 [Example 183]	> 7.00	> 8.30	–	>24 h	> 8.30	> 8.30	4.15 h	> 7.00	> 7.00	–	>24 h	–	–	> 24 h	> 8.30
COc1ccc(F)cc1C(=O)NCc1ccc(-c2nn3c4c(cnc(N)c24)/C=C/CCCCCC(=O)N[C@@H]2CCC[C@@H]3C2)cc1 [Example 187]	6.30 to 7.00	> 8.30	–	2.13 h	> 8.30	–	–	> 7.00	> 7.00	–	18.83 h	–	–	13.6 h	> 8.30
